{"source": "patent US4049665A", "about": "“Unsymmetrical disulfides as antimicrobial agents” (Colgate-Palmolive Company, priority 1975, dated 1977)", "key": {"E. coli": {"system": "E. coli", "assay": "two-fold serial dilution test, minimum inhibitory concentration (Table I)", "type": "cell-based", "conditions": "Escherichia coli, read-out: minimum inhibitory concentration", "text": "(§1) *Data indicates minimum inhibitory concentration in parts per million\n(§2) tested by the two-fold serial dilution text method utilizing 1% solution\n(§3) of the test material in 95% ethyl alcohol."}, "Str. mitis": {"system": "Str. mitis", "assay": "two-fold serial dilution test, minimum inhibitory concentration (Table I)", "type": "cell-based", "conditions": "Streptococcus mitis, Str. mitis (Gram Positive), 1% solution in 95% ethyl alcohol", "text": "as §1, §2, §3"}, "A. niger": {"system": "A. niger", "assay": "two-fold serial dilution test, minimum inhibitory concentration (Table I)", "type": "cell-based", "conditions": "Aspergillus niger, A. niger (Mold), 1% solution in 95% ethyl alcohol", "text": "as §1, §2, §3"}, "S. aureus": {"system": "S. aureus", "assay": "two-fold serial dilution test, minimum inhibitory concentration (Table I)", "type": "cell-based", "conditions": "Staphylococcus aureus, read-out: minimum inhibitory concentration", "text": "as §1, §2, §3"}, "Ps. aeruginosa": {"system": "Ps. aeruginosa", "assay": "two-fold serial dilution test, minimum inhibitory concentration (Table I)", "type": "cell-based", "conditions": "Pseudomonas aeruginosa, Ps. aeruginosa (Gram Negative), 1% solution in 95% ethyl alcohol", "text": "as §1, §2, §3"}, "C. albicans": {"system": "C. albicans", "assay": "two-fold serial dilution test, minimum inhibitory concentration (Table I)", "type": "cell-based, Candidia albicans", "conditions": "Candida albicans, C. albicans (Yeast), 1% solution in 95% ethyl alcohol", "text": "as §1, §2, §3"}, "T. mentagrophytes": {"system": "T. mentagrophytes", "assay": "two-fold serial dilution test, minimum inhibitory concentration (Table I)", "type": "cell-based", "conditions": "Trichophyton mentagrophytes, T. mentagrophytes (Mold), 1% solution in 95% ethyl alcohol", "text": "as §1, §2, §3"}, "P. ovale": {"system": "P. ovale", "assay": "two-fold serial dilution test, minimum inhibitory concentration (Table I)", "type": "cell-based", "conditions": "Pityrosporum ovale, P. ovale (Yeast), 1% solution in 95% ethyl alcohol", "text": "as §1, §2, §3"}, "microorganisms": {"system": "microorganisms", "assay": "antimicrobial properties of shampoo compositions", "conditions": "substituted for 4-chlorphenyl 1-oxo-2-pyridyl disulfide in shampoo of Example VII"}, "soil and foliage fungi": {"system": "soil and foliage fungi", "conditions": "U.S. Pat. No. 2,922,790; soil and foliage fungicides; cited from earlier work"}}, "note": "Like-named read-outs stand apart in the source and are kept apart here."}
{"compound": "[O-][n+]1ccccc1SSc1cccc[n+]1[O-]", "values": [{"measurement": "MIC", "setting": "E. coli", "result": 62.5, "unit": "µg/mL"}, {"measurement": "MIC", "setting": "Str. mitis", "result": 31.2, "unit": "µg/mL"}, {"measurement": "MIC", "setting": "A. niger", "result": 62.5, "unit": "µg/mL"}, {"measurement": "MIC", "setting": "S. aureus", "result": 7.8, "unit": "µg/mL"}, {"measurement": "MIC", "setting": "Ps. aeruginosa", "result": 250, "unit": "µg/mL"}, {"measurement": "MIC", "setting": "C. albicans", "result": 31.2, "unit": "µg/mL"}]}
{"compound": "[O-][n+]1ccccc1SSc1ccccc1", "values": [{"measurement": "MIC", "setting": "E. coli; E. coli (Gram Negative), 1% solution in 95% ethyl alcohol, two-fold serial dilution", "result": 31.2, "unit": "µg/mL"}, {"measurement": "MIC", "setting": "Str. mitis", "result": 15.6, "unit": "µg/mL"}, {"measurement": "MIC", "setting": "A. niger", "result": 15.6, "unit": "µg/mL"}, {"measurement": "MIC", "setting": "T. mentagrophytes", "result": 15.6, "unit": "µg/mL"}, {"measurement": "MIC", "setting": "S. aureus; S. aureus (Gram Positive), 1% solution in 95% ethyl alcohol, two-fold serial dilution", "result": 3.9, "unit": "µg/mL"}, {"measurement": "MIC", "setting": "P. ovale", "result": 0.1, "unit": "µg/mL"}, {"measurement": "MIC", "setting": "Ps. aeruginosa", "result": 250, "unit": "µg/mL"}, {"measurement": "MIC", "setting": "C. albicans", "result": "> 1000", "unit": "µg/mL"}]}
{"compound": "[O-][n+]1ccccc1SSCc1ccc(Cl)cc1Cl", "values": [{"measurement": "MIC", "setting": "E. coli", "result": 31.2, "unit": "µg/mL"}, {"measurement": "MIC", "setting": "Str. mitis", "result": 7.8, "unit": "µg/mL"}, {"measurement": "MIC", "setting": "A. niger", "result": 15.6, "unit": "µg/mL"}, {"measurement": "MIC", "setting": "T. mentagrophytes", "result": 3.9, "unit": "µg/mL"}, {"measurement": "MIC", "setting": "S. aureus", "result": "< 0.5", "unit": "µg/mL"}, {"measurement": "MIC", "setting": "Ps. aeruginosa", "result": 125, "unit": "µg/mL"}, {"measurement": "MIC", "setting": "C. albicans", "result": 7.8, "unit": "µg/mL"}]}
{"compound": "[O-][n+]1ccccc1SSc1ccc(Cl)cc1", "values": [{"measurement": "MIC", "setting": "P. ovale", "result": 3.9, "unit": "µg/mL"}]}
{"compound": "[O-][n+]1ccccc1SSc1ccc(Cl)c(Cl)c1", "values": [{"measurement": "MIC", "setting": "P. ovale", "result": 15.6, "unit": "µg/mL"}]}
{"compound": "[O-][n+]1ccccc1SSCc1ccc(Cl)cc1", "values": [{"measurement": "MIC", "setting": "P. ovale", "result": 1.9, "unit": "µg/mL"}]}
{"compound": "[O-][n+]1ccccc1SSCc1ccc(Cl)c(Cl)c1", "values": [{"measurement": "MIC", "setting": "P. ovale", "result": 3.9, "unit": "µg/mL"}]}
{"compound": "CCCCCCCCCCCCSSc1cccc[n+]1[O-]", "note": "[dodecyl 1-oxo2-pyridyl disulfide, Dodecyl 1-oxo-2-pyridyl disulfide]", "values": [{"measurement": "antimicrobial properties of the resultant shampoo", "setting": "microorganisms", "result": "substantially similar antimicrobial properties"}]}
{"compound": "CCCCCCSSc1cccc[n+]1[O-]", "note": "[hexyl 1-oxo-2-pyridyl disulfide, Hexyl 1-oxo-2-pyridyl disulfide]", "values": [{"measurement": "antimicrobial properties of the resultant shampoo", "setting": "microorganisms", "result": "substantially similar antimicrobial properties"}]}
{"compound": "COc1ccc(SSc2cccc[n+]2[O-])cc1", "note": "[p-methoxyphenyl 1oxo-2-pyridyl disulfide, p-Methoxyphenyl 1-oxo-2-pyridyl disulfide]", "values": [{"measurement": "antimicrobial properties of the resultant shampoo", "setting": "microorganisms", "result": "substantially similar antimicrobial properties"}]}
{"compound": "Decenyl 1-oxo-2-pyridyl disulfide", "values": [{"measurement": "antimicrobial properties of the resultant shampoo", "setting": "microorganisms", "result": "substantially similar antimicrobial properties"}]}
{"compound": "pyridine-1-oxide trichloromethyl disulfide", "values": [{"measurement": "pesticidal properties", "setting": "soil and foliage fungi", "result": "pesticidal properties desirable in soil and foliage fungicides"}]}
